Reference: patent US20090197930A1, “Eyedrops” (priority 2006, published 2009)

Details: administered at high concentration

- miosis: strong miosis
- myopic inclination: myopic inclination is stronger
- pupillary reaction: pupillary reaction becomes dull
SMILES: O=C1CN(/N=C/c2ccc(-c3ccc([N+](=O)[O-])cc3)o2)C(=O)[N-]1.[Na+] [dantrolene, Dantrolene sodium]
